{"source": "patent US9458176B2", "about": "“Tetrahydroimidazo(1,5-D)[1,4]oxazepine derivative” (Eisai R&D Management Co., Ltd., priority 2013, dated 2016)", "key": {"human mGluR2": {"target": "human mGluR2 (Homo sapiens (Human), UniProt Q14416)", "sequence (Q14416 19-872)": "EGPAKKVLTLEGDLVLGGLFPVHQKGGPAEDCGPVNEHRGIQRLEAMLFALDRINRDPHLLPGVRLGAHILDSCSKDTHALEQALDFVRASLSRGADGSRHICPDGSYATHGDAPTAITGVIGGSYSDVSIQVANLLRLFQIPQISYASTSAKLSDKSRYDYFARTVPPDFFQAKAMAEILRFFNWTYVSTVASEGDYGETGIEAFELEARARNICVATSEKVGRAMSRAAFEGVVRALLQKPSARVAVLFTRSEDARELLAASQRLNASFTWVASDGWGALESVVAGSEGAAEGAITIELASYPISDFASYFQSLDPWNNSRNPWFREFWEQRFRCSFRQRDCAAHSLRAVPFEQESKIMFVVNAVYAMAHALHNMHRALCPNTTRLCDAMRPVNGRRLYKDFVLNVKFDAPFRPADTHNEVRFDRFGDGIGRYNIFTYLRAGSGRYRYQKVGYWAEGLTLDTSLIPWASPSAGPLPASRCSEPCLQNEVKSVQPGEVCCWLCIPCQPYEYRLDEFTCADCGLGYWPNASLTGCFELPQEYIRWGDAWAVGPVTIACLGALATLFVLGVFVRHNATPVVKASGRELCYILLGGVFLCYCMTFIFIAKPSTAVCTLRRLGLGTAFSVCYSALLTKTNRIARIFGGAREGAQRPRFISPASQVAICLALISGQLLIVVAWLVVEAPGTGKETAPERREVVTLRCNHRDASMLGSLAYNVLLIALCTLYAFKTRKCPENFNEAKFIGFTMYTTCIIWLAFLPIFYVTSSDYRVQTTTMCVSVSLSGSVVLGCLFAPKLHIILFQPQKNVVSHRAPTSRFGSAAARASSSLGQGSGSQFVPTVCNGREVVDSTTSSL", "assay": "[35S]GTPγS binding assay (Affinity to mGluR2)", "assay_type": "biochemical", "settings": "cell membrane fraction of HEK293 cells stably expressing human mGluR2, glutamic acid 10 μM", "in_short": "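Membranes from HEK293 cells stably co-expressing human mGluR2 and SLC1A3 (1.8–3 μg protein) preincubated with compound 30 min at RT, then stimulated with 10 μM glutamate 15 min; [35S]GTPγS (0.8 kBq) with WGA-SPA beads 1 h, buffer with 3 μM GDP, 100 mM NaCl, 1 mM MgCl2. IC50 from inhibition of glutamate-specific binding.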"}, "Long-Evans rats": {"tested_on": "Long-Evans rats", "assay": "Novel Object Recognition (NOR) test in rats with scopolamine-induced cognitive impairment", "assay_type": "in vivo, rat", "settings": "male Long-Evans rats, scopolamine 0.3 mg/kg i.p.; statistically significant difference in discrimination index vs scopolamine alone group", "method": "Six-week old male Long-Evans rats were used for this test. For 2 days before starting the test, the rats were acclimated to experimental operations such as administration and a test device (that is, a black or gray plastic cage with a width of 40 cm, a depth of 30 cm and a height of 45 cm). Each test compound was dissolved in a 0.1 N hydrochloric acid to be orally administered. Thirty minutes after the administration, scopolamine hydrobromide was intraperitoneally administered at a 0.3 mg/kg dose, so as to induce cognitive impairment. After another 30 minutes, each rat was acclimated in the test device for 3 minutes, and thereafter, two blocks in the same shape were put in the test device as acquisition trial, and exploring time for each block was measured for 5 minutes. Two hours after the acquisition trial, the rat was acclimated in the test device for 3 minutes, and thereafter, the same block as those used in the acquisition trial and a new block in a different shape were put in the cage for retention trial. The exploring time for each block was measured for 3 minutes, and a ratio of the exploring time for the newly used block to the sum of the exploring times for the respective blocks was calculated as a discrimination index. The thus obtained discrimination indexes were compared among a group of rats to which a medium alone was administered (medium group), a group of rats to which scopolamine alone was administered (scopolamine alone group) and a group of rats to which both the test compound and scopolamine were administered, so as to evaluate the action of the test compound on the novel object recognition function (cognitive function) of the rats.\nEach discrimination index was shown as an average and a standard error. The statistical significance between the medium group and the scopolamine alone group was analyzed by the independent t-test. The statistical significance between the scopolamine alone group and each sample group was analyzed by one-way analysis of variance and then by Dunnett's multiple comparison test. The significance level was set to 5% on both sides. […] The analysis was carried out by using Prism 5 for Windows for Japanese, ver. 5.03.\nA minimum effective dose at which a statistically significant difference was found between a group suffering from the cognitive impairment induced by scopolamine and a group treated with each compound is shown in Table 10."}, "[1]": {"settings": "inhibition of specific [35S]GTPγS binding"}}, "note": "Marks after values point to notes of the source that are not given here."}
{"compound": "COc1cc(-c2nc(-c3ccnc(C)c3)c3n2C[C@@H](C)OCC3)ccc1OC(F)(F)F", "note": "[Example 24, (R)-3-(3-methoxy-4-(trifluoromethoxy)phenyl)-6-methyl-1-(2-methylpyridin-4-yl)-5,6,8,9-tetrahydroimidazo[1,5-d][1,4]oxazepine]", "values": [{"measurement": "IC50", "setting": "human mGluR2", "value": 4.8, "unit": "nM"}, {"measurement": "Minimum effective dose", "setting": "Long-Evans rats", "value": "1 mg/kg, p.o."}]}
{"compound": "Cc1cc(-c2nc(-c3ccc(Cl)c(F)c3)n3c2CCO[C@H](C)C3)cc(CF)n1", "note": "[Example 87]", "values": [{"measurement": "IC50", "setting": "human mGluR2", "value": 22, "unit": "nM"}, {"measurement": "Minimum effective dose", "setting": "Long-Evans rats", "value": "3 mg/kg, p.o."}]}
{"compound": "COc1cc(-c2nc(-c3cc(C)nc(C)c3)c3n2C[C@@H](CF)OCC3)ccc1Cl", "note": "[Example 11, (S)-3-(4-chloro-3-methoxyphenyl)-1-(2,6-dimethylpyridin-4-yl)-6-fluoromethyl-5,6,8,9-tetrahydroimidazo[1,5-d][1,4]oxazepine]", "values": [{"measurement": "IC50", "setting": "human mGluR2", "value": 11.4, "unit": "nM"}, {"measurement": "Minimum effective dose", "setting": "Long-Evans rats", "value": ">1* mg/kg, p.o."}]}
{"compound": "COc1cc(-c2nc(-c3cc(C)nc(C)c3)c3n2C[C@@H](C)OCC3)ccc1Cl", "note": "[Example 1, (R)-3-(4-chloro-3-methoxyphenyl)-1-(2,6-dimethylpyridin-4-yl)-6-methyl-5,6,8,9-tetrahydroimidazo[1,5-d][1,4]oxazepine]", "values": [{"measurement": "IC50", "setting": "human mGluR2", "value": 10, "unit": "nM"}, {"measurement": "Minimum effective dose", "setting": "Long-Evans rats", "value": "3 mg/kg, p.o."}]}
{"compound": "COc1cc(-c2nc(-c3cc(C)nc(C)c3)c3n2C[C@@H](C)OCC3)ccc1C(F)(F)F", "note": "[Example 7, (R)-1-(2,6-dimethylpyridin-4-yl)-3-(3-methoxy-4-(trifluoromethyl)phenyl)-6-methyl-5,6,8,9-tetrahydroimidazo[1,5-d][1,4]oxazepine]", "values": [{"measurement": "IC50", "setting": "human mGluR2", "value": 4.2, "unit": "nM"}, {"measurement": "Minimum effective dose", "setting": "Long-Evans rats", "value": "0.3 mg/kg, p.o."}]}
{"compound": "Cc1cc(-c2nc(-c3ccc(OC(F)F)c(C)c3)n3c2CCO[C@H](C)C3)cc(C)n1", "note": "[Example 14, (R)-3-(4-(difluoromethoxy)-3-methylphenyl)-1-(2,6-dimethylpyridin-4-yl)-6-methyl-5,6,8,9-tetrahydroimidazo[1,5-d][1,4]oxazepine]", "values": [{"measurement": "IC50", "setting": "human mGluR2", "value": 5.6, "unit": "nM"}, {"measurement": "Minimum effective dose", "setting": "Long-Evans rats", "value": "1 mg/kg, p.o."}]}
{"compound": "Cc1cc(-c2nc(-c3ccc(F)c(OCC4CC4)c3)n3c2CCO[C@H](C)C3)cc(C)n1", "note": "[Example 6, (R)-3-(3-cyclopropylmethoxy-4-fluorophenyl)-1-(2,6-dimethylpyridin-4-yl)-6-methyl-5,6,8,9-tetrahydroimidazo[1,5-d][1,4]oxazepine]", "values": [{"measurement": "IC50", "setting": "human mGluR2", "value": 13, "unit": "nM"}]}
{"compound": "Cc1cc(-c2nc(-c3ccc(F)c(Cl)c3)n3c2CCO[C@H](CF)C3)cc(C)n1", "note": "[Example 171]", "values": [{"measurement": "IC50", "setting": "human mGluR2; [1]", "value": 26.7, "unit": "nM"}]}
{"compound": "Cc1cc(-c2nc(-c3ccc(Cl)c(Cl)c3)n3c2CCO[C@H](C)C3)ccn1", "note": "[Example 66]", "values": [{"measurement": "IC50", "setting": "human mGluR2", "value": 12.6, "unit": "nM"}]}
{"compound": "CCc1ccc(-c2nc(-c3ccnc(C)c3)c3n2C[C@@H](C)OCC3)cc1OC", "note": "[Example 101]", "values": [{"measurement": "IC50", "setting": "human mGluR2", "value": 7.6, "unit": "nM"}]}
{"compound": "Cc1cc(-c2nc(-c3ccc(OC(F)(F)F)c(CO)c3)n3c2CCO[C@H](C)C3)cc(C)n1", "note": "[Example 229]", "values": [{"measurement": "IC50", "setting": "human mGluR2; [1]", "value": 18, "unit": "nM"}]}
{"compound": "Cc1cc(-c2nc(-c3ccc(F)c(OCCF)c3)n3c2CCO[C@H](C)C3)cc(C)n1", "note": "[Example 5, (R)-1-(2,6-dimethylpyridin-4-yl)-3-(4-fluoro-3-(2-fluoroethoxy)phenyl)-6-methyl-5,6,8,9-tetrahydroimidazo[1,5-d][1,4]oxazepine]", "values": [{"measurement": "IC50", "setting": "human mGluR2", "value": 26.5, "unit": "nM"}]}
{"compound": "Cc1cc(-c2nc(-c3ccc(OC(F)(F)F)c(CF)c3)n3c2CCO[C@H](C)C3)ccn1", "note": "[Example 39, (R)-3-(3-(fluoromethyl)-4-(trifluoromethoxy)phenyl)-6-methyl-1-(2-methylpyridin-4-yl)-5,6,8,9-tetrahydroimidazo[1,5-d][1,4]oxazepine]", "values": [{"measurement": "IC50", "setting": "human mGluR2", "value": 2.5, "unit": "nM"}]}
{"compound": "CCOc1ccc(-c2nc(-c3cc(C)nc(C)c3)c3n2C[C@@H](CF)OCC3)cc1Cl", "note": "[Example 37, (S)-3-(3-chloro-4-ethoxyphenyl)-1-(2,6-dimethylpyridin-4-yl)-6-(fluoromethyl)-5,6,8,9-tetrahydroimidazo[1,5-d][1,4]oxazepine]", "values": [{"measurement": "IC50", "setting": "human mGluR2", "value": 6, "unit": "nM"}]}
{"compound": "Cc1cc(-c2nc(-c3ccc(OC(F)(F)F)c(F)c3)n3c2CCO[C@H](CF)C3)cc(C)n1", "note": "[Example 165]", "values": [{"measurement": "IC50", "setting": "human mGluR2; [1]", "value": 9.4, "unit": "nM"}]}
{"compound": "Cc1cc(-c2nc(-c3ccc(OC(F)(F)F)c(Cl)c3)n3c2CCOCC3)cc(C)n1", "note": "[Example 112]", "values": [{"measurement": "IC50", "setting": "human mGluR2", "value": 17.9, "unit": "nM"}]}
{"compound": "Cc1cc(-c2nc(-c3ccc(Cl)c(Cl)c3)n3c2CCO[C@H](CF)C3)cc(C)n1", "note": "[Example 76]", "values": [{"measurement": "IC50", "setting": "human mGluR2", "value": 20.9, "unit": "nM"}]}
{"compound": "COc1cc(-c2nc(-c3cc(C)nc(C)c3)c3n2CCOCC3)ccc1C(F)F", "note": "[Example 121]", "values": [{"measurement": "IC50", "setting": "human mGluR2", "value": 40.9, "unit": "nM"}]}
{"compound": "COc1cc(-c2nc(-c3cc(C)nc(C)c3)c3n2CCOCC3)ccc1Cl", "note": "[Example 44]", "values": [{"measurement": "IC50", "setting": "human mGluR2", "value": 22.3, "unit": "nM"}, {"measurement": "Minimum effective dose", "setting": "Long-Evans rats", "value": "1 mg/kg, p.o."}]}
{"compound": "Cc1cc(-c2nc(-c3ccc(OC(F)F)c(CO)c3)n3c2CCO[C@H](C)C3)cc(C)n1", "note": "[Example 235]", "values": [{"measurement": "IC50", "setting": "human mGluR2; [1]", "value": 21.7, "unit": "nM"}]}
{"compound": "Cc1cc(-c2nc(-c3ccc(Cl)c(C)c3)n3c2CCO[C@H](C)C3)cc(CF)n1", "note": "[Example 88]", "values": [{"measurement": "IC50", "setting": "human mGluR2", "value": 16.7, "unit": "nM"}]}
{"compound": "COc1cc(-c2nc(-c3cc(C)nc(C)c3)c3n2CCOCC3)ccc1OC(F)F", "note": "[Example 127]", "values": [{"measurement": "IC50", "setting": "human mGluR2", "value": 12.1, "unit": "nM"}]}
{"compound": "Cc1cc(-c2nc(-c3ccc(OC(F)F)c(C)c3)n3c2CCO[C@H](C)C3)cc(CF)n1", "note": "[Example 199]", "values": [{"measurement": "IC50", "setting": "human mGluR2; [1]", "value": 5.2, "unit": "nM"}]}
{"compound": "Cc1cc(-c2nc(-c3ccc(OC(F)F)c(C)c3)n3c2CCO[C@H](CF)C3)ccn1", "note": "[Example 40, (S)-3-(4-(difluoromethoxy)-3-methylphenyl)-6-(fluoromethyl)-1-(2-methylpyridin-4-yl)-5,6,8,9-tetrahydroimidazo[1,5-d][1,4]oxazepine]", "values": [{"measurement": "IC50", "setting": "human mGluR2", "value": 4.7, "unit": "nM"}]}
